Inhibition data for 19 compounds are collected here from patent US9062066B2, “Anti-inflammatory compound having inhibitory activity against multiple tyrosine kinases and pharmaceutical composition containing same” (KOREA INSTITUTE OF SCIENCE AND TECHNOLOGY, priority 2010, dated 2015).

Where two headings read alike, the source gives them in different places.

For experiment [1], the system named is NO synthesis in J744A.1 macrophage. The experiment can be described thus: inhibition of nitric oxide (NO) synthesis in LPS-activated macrophages (Griess reagent). It counts as cell-based. Conditions: read-out: Inhibition (%) of NO synthesis. For orientation: Nitrite, measured by Griess reagent, commonly stands in for NO production.
The next experiment concerns the target c-Src tyrosine kinase (Homo sapiens (Human), UniProt P12931). The experiment can be described thus: in vitro c-Src tyrosine kinase inhibition (32P-ATP, poly(D4Y)n substrate). It counts as biochemical. Conditions: 1 uM compound; read-out: % inhibition against c-Src.
A further experiment deals with Hck tyrosine kinase (Homo sapiens (Human), UniProt P08631). Put plainly: in vitro Hck tyrosine kinase inhibition. It counts as biochemical. The conditions noted are these: 1 uM compound; read-out: % inhibition against Hck.
Chain of Hck tyrosine kinase (P08631 whole entry): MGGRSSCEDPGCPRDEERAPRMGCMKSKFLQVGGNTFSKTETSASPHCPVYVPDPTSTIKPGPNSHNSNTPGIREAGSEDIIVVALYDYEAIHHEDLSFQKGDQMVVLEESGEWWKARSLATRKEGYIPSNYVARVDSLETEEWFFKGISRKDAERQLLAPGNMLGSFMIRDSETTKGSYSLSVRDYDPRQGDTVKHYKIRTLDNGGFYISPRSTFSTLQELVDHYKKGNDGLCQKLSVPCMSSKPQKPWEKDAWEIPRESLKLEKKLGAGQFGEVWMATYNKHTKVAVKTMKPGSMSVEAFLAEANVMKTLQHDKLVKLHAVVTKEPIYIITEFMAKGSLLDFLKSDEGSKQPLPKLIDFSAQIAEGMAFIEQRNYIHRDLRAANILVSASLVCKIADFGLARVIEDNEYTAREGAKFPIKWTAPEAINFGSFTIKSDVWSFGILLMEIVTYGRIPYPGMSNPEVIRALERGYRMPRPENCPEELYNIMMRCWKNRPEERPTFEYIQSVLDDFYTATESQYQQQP
For the next experiment, the target named is Lyn tyrosine kinase (Homo sapiens (Human), UniProt P07948). The experiment can be described thus: in vitro Lyn tyrosine kinase inhibition. The class given is biochemical. Conditions: 1 uM compound; read-out: % inhibition against Lyn.
Chain of Lyn tyrosine kinase (P07948 whole entry, the tested form may be a part): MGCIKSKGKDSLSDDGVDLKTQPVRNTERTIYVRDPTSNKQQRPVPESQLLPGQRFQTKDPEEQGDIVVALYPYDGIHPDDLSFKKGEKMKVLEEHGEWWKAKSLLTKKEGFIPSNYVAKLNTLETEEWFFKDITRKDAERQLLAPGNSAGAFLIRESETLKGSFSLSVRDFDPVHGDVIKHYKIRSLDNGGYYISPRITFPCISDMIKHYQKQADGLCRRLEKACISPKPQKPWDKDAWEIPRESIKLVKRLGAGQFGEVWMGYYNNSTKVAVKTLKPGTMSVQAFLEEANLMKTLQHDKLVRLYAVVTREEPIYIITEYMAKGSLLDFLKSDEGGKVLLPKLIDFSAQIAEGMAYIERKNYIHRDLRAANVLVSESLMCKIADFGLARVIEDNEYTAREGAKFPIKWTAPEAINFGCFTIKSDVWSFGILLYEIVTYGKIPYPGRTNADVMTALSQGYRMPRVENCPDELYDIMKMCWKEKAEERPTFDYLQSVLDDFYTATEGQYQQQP
In another experiment the target is DDR2 tyrosine kinase (Homo sapiens (Human), UniProt Q16832). The experiment can be described thus: in vitro DDR2 tyrosine kinase inhibition (GST-fused kinase domain). It counts as biochemical. Conditions: 1 uM compound; read-out: % inhibition against DDR2.
Chain of DDR2 tyrosine kinase (Q16832 563-849): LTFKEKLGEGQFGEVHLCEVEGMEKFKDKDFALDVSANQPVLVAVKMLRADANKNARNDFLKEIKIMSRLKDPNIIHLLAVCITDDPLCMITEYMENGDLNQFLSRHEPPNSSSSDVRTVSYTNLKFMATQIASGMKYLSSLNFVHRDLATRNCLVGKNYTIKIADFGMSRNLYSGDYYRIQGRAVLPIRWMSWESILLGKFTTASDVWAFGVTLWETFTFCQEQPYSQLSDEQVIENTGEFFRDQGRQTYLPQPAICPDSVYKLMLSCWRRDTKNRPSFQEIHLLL
The next experiment addresses Fgr tyrosine kinase (Homo sapiens (Human), UniProt P09769). Put plainly: in vitro Fgr tyrosine kinase inhibition. The class given is biochemical. Conditions: 1 uM compound; read-out: % inhibition against Fgr.
The target of another experiment is DDR1 tyrosine kinase (Homo sapiens (Human), UniProt Q08345). Put plainly: in vitro DDR1 tyrosine kinase inhibition (GST-fused kinase domain). It counts as biochemical. Conditions: 1 uM compound; read-out: % inhibition against DDR1.
Chain of DDR1 tyrosine kinase (Q08345 610-905): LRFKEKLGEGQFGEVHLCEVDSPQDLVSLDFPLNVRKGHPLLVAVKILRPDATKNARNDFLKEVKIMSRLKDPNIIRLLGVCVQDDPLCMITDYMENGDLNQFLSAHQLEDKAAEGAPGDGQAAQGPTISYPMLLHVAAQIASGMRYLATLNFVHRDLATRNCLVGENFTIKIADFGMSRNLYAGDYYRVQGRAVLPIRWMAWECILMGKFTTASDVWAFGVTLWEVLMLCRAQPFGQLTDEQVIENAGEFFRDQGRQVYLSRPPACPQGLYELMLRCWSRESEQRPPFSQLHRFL
The subject of experiment [2] is TNF-α synthesis in J744A.1 macrophages. The experiment can be described thus: inhibition of TNF-α synthesis in LPS-activated macrophages (ELISA). The conditions noted are these: Macrophage; 10 μM compound, 100 ng/ml LPS, 6 hours; read-out: Inhibition (%) of TNF-α synthesis. The class given is cell-based. Background: ELISA stands for enzyme-linked immunosorbent assay.

Chain of Fgr tyrosine kinase (P09769 whole entry, the tested form may be a part): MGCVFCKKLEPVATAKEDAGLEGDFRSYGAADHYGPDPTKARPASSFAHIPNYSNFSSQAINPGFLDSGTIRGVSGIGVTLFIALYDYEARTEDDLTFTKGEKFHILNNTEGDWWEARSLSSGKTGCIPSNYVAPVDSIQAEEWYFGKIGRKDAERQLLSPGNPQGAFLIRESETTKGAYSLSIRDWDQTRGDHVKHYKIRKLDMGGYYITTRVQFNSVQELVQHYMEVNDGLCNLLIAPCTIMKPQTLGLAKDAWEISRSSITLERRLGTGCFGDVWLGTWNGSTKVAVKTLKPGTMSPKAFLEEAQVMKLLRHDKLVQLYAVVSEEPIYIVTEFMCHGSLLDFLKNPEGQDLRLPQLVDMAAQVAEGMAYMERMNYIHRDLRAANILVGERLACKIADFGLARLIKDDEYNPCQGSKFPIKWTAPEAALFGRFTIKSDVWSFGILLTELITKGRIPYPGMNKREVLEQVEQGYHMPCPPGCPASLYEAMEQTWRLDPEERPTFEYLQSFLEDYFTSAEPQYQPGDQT
Chain of c-Src tyrosine kinase (P12931 whole entry, looked up): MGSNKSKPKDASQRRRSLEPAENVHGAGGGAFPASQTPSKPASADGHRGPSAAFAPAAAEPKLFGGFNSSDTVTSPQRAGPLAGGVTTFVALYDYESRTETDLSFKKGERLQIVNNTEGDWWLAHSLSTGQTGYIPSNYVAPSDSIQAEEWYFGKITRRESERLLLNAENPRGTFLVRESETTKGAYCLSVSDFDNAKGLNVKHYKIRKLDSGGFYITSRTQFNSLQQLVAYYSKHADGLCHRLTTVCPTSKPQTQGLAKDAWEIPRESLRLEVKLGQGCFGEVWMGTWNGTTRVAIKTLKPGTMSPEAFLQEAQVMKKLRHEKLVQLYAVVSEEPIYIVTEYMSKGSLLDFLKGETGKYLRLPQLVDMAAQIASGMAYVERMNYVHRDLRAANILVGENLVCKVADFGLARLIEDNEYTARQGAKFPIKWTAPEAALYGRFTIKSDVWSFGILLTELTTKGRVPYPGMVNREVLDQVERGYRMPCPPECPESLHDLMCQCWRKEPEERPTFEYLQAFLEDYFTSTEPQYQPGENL

A word on the inhibition: it is the change of the read-out against control, counted positive when it falls. With `Oc1cccc(Nc2ncnc3cc(-c4ccccc4)sc23)c1` [LCB 03-0008, 3-(6-phenylthieno[3,2-d]pyrimidin-4-ylamino)phenol], the inhibition at 10 µM in experiment [1] (10 μM compound, LPS, 24 hours) is 87%; in experiment [2], 67%. For the same compound, the inhibition at 1 µM on c-Src tyrosine kinase, at Hck tyrosine kinase, at Lyn tyrosine kinase, on DDR2 tyrosine kinase, on Fgr tyrosine kinase and on DDR1 tyrosine kinase was over 70% throughout.
Turning to `Oc1cccc(Nc2ncnc3cc(Br)sc23)c1` [LCB 03-0015, 3-(6-Bromo-thieno[3,2-d]pyrimidin-4-ylamino)-phenol], the inhibition at 1 µM is over 60% at c-Src tyrosine kinase; over 60% at Hck tyrosine kinase; over 60% at Lyn tyrosine kinase; over 20% at DDR2 tyrosine kinase; over 60% on Fgr tyrosine kinase; over 20% on DDR1 tyrosine kinase. For the same compound, the inhibition at 10 µM in experiment [2] stood at 71%.
For `COc1ccc(-c2cc3ncnc(Nc4cccc(O)c4)c3s2)cc1` [LCB 03-0017, 3-[6-(4-Methoxy-phenyl)-thieno[3,2-d]pyrimidin-4-ylamino]-phenol], the inhibition at 10 µM in experiment [1] (10 μM compound, LPS, 24 hours) came out at 82%. Also, the inhibition at 1 µM is over 60% on c-Src tyrosine kinase; over 60% on Hck tyrosine kinase; over 60% on Lyn tyrosine kinase; over 70% at DDR2 tyrosine kinase; over 60% at Fgr tyrosine kinase; over 70% at DDR1 tyrosine kinase.
For the compound `Oc1cccc(Nc2ncnc3cc(-c4ccc(CCN5CCCC5)cc4)sc23)c1` [LCB 03-0043], the inhibition at 10 µM in experiment [1] (10 μM compound, LPS, 24 hours) came out at 66%. The inhibition at 1 µM was over 30% at c-Src tyrosine kinase; over 30% at Hck tyrosine kinase; over 30% at Lyn tyrosine kinase; over 80% at DDR2 tyrosine kinase; over 30% on Fgr tyrosine kinase; over 80% at DDR1 tyrosine kinase.
As for `CN1CCN(C(=O)Cc2ccc(-c3cc4ncnc(Nc5cccc(O)c5)c4s3)cc2)CC1` [LCB 03-0047, 2-(4-(4-(3-hydroxyphenylamino)thieno[3,2-d]pyrimidin-6-yl)phenyl)-1-(4-methylpiperazin-1-yl)ethanone], the inhibition at 10 µM in experiment [1] (24 h) came to 56%. Also, the inhibition at 1 µM on c-Src tyrosine kinase is over 30%; on Hck tyrosine kinase it was over 30%; at Lyn tyrosine kinase it was over 20%; at DDR2 tyrosine kinase it was over 70%; at Fgr tyrosine kinase, over 30%; at DDR1 tyrosine kinase, over 70%.
Consider `COC(=O)C1CCCN1Cc1ccc(-c2cc3ncnc(Nc4cccc(O)c4)c3s2)cc1` (stereo not drawn) [LCB 03-0056, methyl 1-(4-(4-(3-hydroxyphenylamino)thieno[3,2-d]pyrimidin-6-yl)benzyl)pyrrolidine-2-carboxylate], for which the inhibition at 1 µM at c-Src tyrosine kinase was over 50%; at Hck tyrosine kinase, over 50%; on Lyn tyrosine kinase, over 50%; on DDR2 tyrosine kinase, over 80%; on Fgr tyrosine kinase, over 50%; at DDR1 tyrosine kinase, over 80%.
With `CCOCc1ccc(-c2cc3ncnc(Nc4cccc(O)c4)c3s2)cc1` [LCB 03-0073, 3-(6-(4-(ethoxymethyl)phenyl)thieno[3,2-d]pyrimidin-4-ylamino)phenol], in experiment [1] (10 μM compound, LPS, 24 hours), the inhibition at 10 µM was found to be 85%. Further, the inhibition at 1 µM on c-Src tyrosine kinase is over 30%; on Hck tyrosine kinase it was over 30%; at Lyn tyrosine kinase, over 30%; at DDR2 tyrosine kinase, over 80%; at Fgr tyrosine kinase, over 30%; at DDR1 tyrosine kinase, over 80%.
As to `CC(CO)NC(=O)c1ccc(-c2cc3ncnc(Nc4cccc(O)c4)c3s2)cc1` (stereo not drawn) [LCB 03-0074, 4-(4-(3-hydroxyphenylamino)thieno[3,2-d]pyrimidin-6-yl)-N-(1-hydroxypropan-2-yl)benzamide], the inhibition at 1 µM at c-Src tyrosine kinase is over 30%; at Hck tyrosine kinase it was over 30%; on Lyn tyrosine kinase, over 30%; on DDR2 tyrosine kinase, over 80%; at Fgr tyrosine kinase, over 30%; at DDR1 tyrosine kinase, over 80%.
With `CC(NC(=O)c1ccc(-c2cc3ncnc(Nc4cccc(O)c4)c3s2)cc1)C(=O)O` (stereo not drawn) [LCB 03-0075, 2-(4-(4-(3-hydroxyphenylamino)thieno[3,2-d]pyrimidin-6-yl)benzamido)propanoic acid], the inhibition at 1 µM is over 30% at c-Src tyrosine kinase; over 30% at Hck tyrosine kinase; over 30% on Lyn tyrosine kinase; over 80% at DDR2 tyrosine kinase; over 30% on Fgr tyrosine kinase; over 80% on DDR1 tyrosine kinase.
Regarding `Oc1cccc(Nc2ncnc3cc(-c4ccc(N5CCOCC5)cc4)sc23)c1` [LCB 03-0082, 3-(6-(4-morpholinophenyl)thieno[3,2-d]pyrimidin-4-ylamino)phenol], the inhibition at 10 µM is 90% in experiment [1] (10 μM compound, LPS, 24 hours) and 77% in experiment [2]. The inhibition at 1 µM at c-Src tyrosine kinase, at Hck tyrosine kinase, on Lyn tyrosine kinase and on Fgr tyrosine kinase was over 70% in each case.
`CN1CCN(c2nc3ncnc(Nc4cccc(O)c4)c3s2)CC1` [LCB 03-0100, 3-(2-(4-methylpiperazin-1-yl)thiazolo[4,5-d]pyrimidin-7-ylamino)phenol]: the inhibition at 1 µM at c-Src tyrosine kinase is over 30%; at Hck tyrosine kinase, over 30%; on Lyn tyrosine kinase it was over 30%; on DDR2 tyrosine kinase, over 70%; on Fgr tyrosine kinase it was over 30%; at DDR1 tyrosine kinase, over 70%.
As to `CN1CCN(Cc2csc(-c3cc4ncnc(Nc5cccc(O)c5)c4s3)c2)CC1` [LCB 03-0102, 3-(6-(4-((4-methylpiperazin-1-yl)methyl)thiophene-2-yl)thieno[3,2-d]pyrimidin-4-ylamino)phenol], in experiment [1] (10 μM compound, LPS, 24 hours), the inhibition at 10 µM came to 97%. Also, the inhibition at 1 µM is over 60% at c-Src tyrosine kinase; over 60% at Hck tyrosine kinase; over 60% at Lyn tyrosine kinase; over 70% at DDR2 tyrosine kinase; over 60% on Fgr tyrosine kinase; over 70% on DDR1 tyrosine kinase.
For the compound `Oc1cccc(Nc2ncnc3cc(-c4cc(CN5CCCCC5)cs4)sc23)c1` [LCB 03-0103, 3-(6-(4-(piperidin-1-ylmethyl)thiophene-2-yl)thieno[3,2-d]pyrimidin-4-ylamino)phenol], the inhibition at 1 µM is over 50% on c-Src tyrosine kinase; over 50% on Hck tyrosine kinase; over 50% at Lyn tyrosine kinase; over 70% on DDR2 tyrosine kinase; over 50% at Fgr tyrosine kinase; over 70% on DDR1 tyrosine kinase.
For `Oc1cccc(Nc2ncnc3cc(-c4cc(CN5CCOCC5)cs4)sc23)c1` [LCB 03-0104, 3-(6-(4-(morpholinomethyl)thiophene-2-yl)thieno[3,2-d]pyrimidin-4-ylamino)phenol], the inhibition at 1 µM was over 50% on c-Src tyrosine kinase; over 50% on Hck tyrosine kinase; over 50% on Lyn tyrosine kinase; over 80% on DDR2 tyrosine kinase; over 50% on Fgr tyrosine kinase; over 80% at DDR1 tyrosine kinase.
As for `Oc1cccc(Nc2ncnc3cc(-c4cc(CN5CCNCC5)cs4)sc23)c1` [LCB 03-0105, 3-(6-(4-(piperazin-1-ylmethyl)thiophene-2-yl)thieno[3,2-d]pyrimidin-4-ylamino)phenol], the inhibition at 1 µM is over 50% on c-Src tyrosine kinase; over 50% at Hck tyrosine kinase; over 50% at Lyn tyrosine kinase; over 70% at DDR2 tyrosine kinase; over 50% on Fgr tyrosine kinase; over 70% at DDR1 tyrosine kinase.
In the case of `CCNCc1csc(-c2cc3ncnc(Nc4cccc(O)c4)c3s2)c1` [LCB 03-0106, 3-(6-(4-((ethylamino)methyl)thiophene-2-yl)thieno[3,2-d]pyrimidin-4-ylamino)phenol], the inhibition at 1 µM at c-Src tyrosine kinase, at Hck tyrosine kinase, at Lyn tyrosine kinase, on DDR2 tyrosine kinase, on Fgr tyrosine kinase and on DDR1 tyrosine kinase was over 70% in each case. In experiment [2], the inhibition at 10 µM came out at 63%.
Consider `Oc1cccc(Nc2ncnc3cc(-c4cc(CN5CCCC5)co4)sc23)c1` [LCB 03-0113, 3-(6-(4-(pyrrolidin-1-ylmethyl)furan-2-yl)thieno[3,2-d]pyrimidin-4-ylamino)phenol], for which the inhibition at 1 µM at c-Src tyrosine kinase is over 50%; on Hck tyrosine kinase, over 50%; at Lyn tyrosine kinase, over 50%; at DDR2 tyrosine kinase, over 70%; on Fgr tyrosine kinase it was over 50%; at DDR1 tyrosine kinase, over 70%.
Take `CN1CCN(Cc2coc(-c3cc4ncnc(Nc5cccc(O)c5)c4s3)c2)CC1` [LCB 03-0114, 3-(6-(4-((4-methylpiperazin-1-yl)methyl)furan-2-yl)thieno[3,2-d]pyrimidin-4-ylamino)phenol]: the inhibition at 1 µM at c-Src tyrosine kinase was over 50%; at Hck tyrosine kinase it was over 50%; on Lyn tyrosine kinase it was over 50%; at DDR2 tyrosine kinase, over 70%; at Fgr tyrosine kinase it was over 50%; on DDR1 tyrosine kinase, over 70%.
For `Oc1cccc(Nc2ncnc3cc(-c4cc(CN5CCCCC5)co4)sc23)c1` [LCB 03-0115, 3-(6-(4-(piperidin-1-ylmethyl)furan-2-yl)thieno[3,2-d]pyrimidin-4-ylamino)phenol], the inhibition at 1 µM at c-Src tyrosine kinase was over 50%; on Hck tyrosine kinase it was over 50%; on Lyn tyrosine kinase, over 50%; on DDR2 tyrosine kinase, over 70%; on Fgr tyrosine kinase it was over 50%; on DDR1 tyrosine kinase, over 70%.
